{"source": "patent US9549554B2", "about": "“Insecticidal synergistic combinations of phthaldiamide derivatives and abamectin, emamectin, lepimectin or milbemectin” (BAYER CROPSCIENCE AKTIENGESELLSCHAFT, priority 2013, dated 2017)", "key": {"Myzus persicae": {"system": "Myzus persicae", "assay": "Myzus persicae spray test (infested cabbage leaves)", "format": "in vivo", "conditions": "green peach aphid", "protocol": "Solvent: 7 parts by weight of dimethylformamide\nEmulsifier: alkylaryl polyglycolether\nFurther test concentrations are prepared by dilution with emulsifier containing water Ammonium salt and/or penetration enhancer in a dosage of 1000 ppm are added to the desired concentration if necessary.\nCabbage leaves (Brassica oleracea) which are heavily infested by the green peach aphid (Myzus persicae) are treated by being sprayed with the preparation of the active compound of the desired concentration."}, "Spodoptera frugiperda": {"system": "Spodoptera frugiperda", "assay": "whole plant or invertebrate", "protocol": "Solvent: 78.0 parts by weight acetone\n• 1.5 parts by weight dimethylformamide Emulsifier: 0.5 parts by weight alkylarylpolyglycolether\nTo produce a suitable preparation of a spore suspension the spores are diluted with emulsifier-containing water to the desired concentration.\nMaize (Zea mais) leaf sections are sprayed with a preparation of the active ingredient of the desired concentration. Once dry, the leaf sections are infested with fall armyworm larvae (Spodoptera frugiperda).\nAfter the specified period of time, mortality in % is determined. 100% means all caterpillars have been killed and 0% means none of the caterpillars have been killed. The mortality values determined thus are recalculated using the Colby-formula (see sheet 1)."}, "Phaedon cochleariae": {"system": "Phaedon cochleariae", "assay": "Phaedon cochleariae spray test (Chinese cabbage leaf disks)", "format": "in vivo", "conditions": "mustard beetle larvae", "text": "Solvent: 78.0 parts by weight of acetone\n• 1.5 parts by weight of dimethylformamide Emulsifier: 0.5 parts by weight of alkylaryl polyglycolether\nOnce dry, the leaf disks are infested with mustard beetle larvae (Phaedon cochleariae).\n100% means all beetle larvae have been killed and 0% means none of the beetle larvae have been killed."}, "[1]": {"conditions": "Spodoptera frugiperda, in Zea mays, 144 h, read-out: Efficacy in % after 6d (mortality)"}}, "data": [{"molecule": "Cc1cc(C(F)(C(F)(F)F)C(F)(F)F)ccc1NC(=O)c1cccc(Cl)c1C(=O)NC(C)(C)C#N", "note": "[(I-5)]", "values": [{"measurement": "mortality at 3 ppm", "setting": "Myzus persicae; Myzus persicae, 144 h, 3 ppm, after 6 d, read-out: Efficacy in % after 6d (mortality)", "result": 0, "unit": "%"}, {"measurement": "mortality at 75 ppm", "setting": "Myzus persicae; Myzus persicae, 144 h, 75 ppm, after 6 d, read-out: Efficacy in % after 6d (mortality)", "result": 0, "unit": "%"}, {"measurement": "mortality at 0.25 g/ha", "setting": "Spodoptera frugiperda; [1]", "result": 0, "unit": "%"}, {"measurement": "mortality at 3 g/ha", "setting": "Spodoptera frugiperda; [1]", "result": 33, "unit": "%"}, {"measurement": "mortality at 4 g/ha", "setting": "Phaedon cochleariae; Phaedon cochleariae, foliar, 144 h, 4 g ai/ha, after 6 d, read-out: Efficacy in % after 6d (mortality)", "result": 0, "unit": "%"}]}, {"molecule": "Abamectin [Abamectin (II-1), reference compound]", "values": [{"measurement": "Efficacy in % after 6d (mortality)", "setting": "Spodoptera frugiperda; 15 g ai/ha, fall armyworm larvae, after 6 d", "result": 0, "unit": "%"}, {"measurement": "Efficacy in % after 6d (mortality)", "setting": "Phaedon cochleariae; 0.032 g ai/ha", "result": 0, "unit": "%"}]}, {"molecule": "Emamectin benzoate [Emamectin-Benzoate, reference compound]", "values": [{"measurement": "Efficacy in % after 6d (mortality)", "setting": "Myzus persicae; 15 ppm", "result": 15, "unit": "%"}]}]}
